Results as given in patent publication US6342219B1 (Board of Regents, The University of Texas System, priority 1999, dated 2002).

Experiments:
NCI-H358 tumors = assay: Prolonged treatment of established NCI-H358 xenografts (FIG. 5A); format: in vivo, mice
Procedure: (§1) FIG. 5A and FIG. 5B. […] Treatments (T) were 100 μg of the IgG given i.p., except for the initial treatment that consisted of 500 μg of the IgG given i.v. Mean tumor volume along with the SEM is shown. At the end of the study (day 116), the mice were sacrificed and the tumors dissected out and weighed. […] The mice were treated every other day as indicated (T). […] Mean tumor volume along with the SE is shown.
In this study, spontaneous regressions were less pronounced. […] The 3E7 treated mice began treatment with a mean tumor volume of 428 mm^3 and rose to a volume of 1326 mm^3 after approximately 14 wk, an increase of […] in volume.

A673 rhabdomyosarcoma = assay: In vivo tumor growth inhibition, newly implanted A673; design: species or system nu/nu mice
Procedure: (§2) FIG. 3A and FIG. 3B. […] FIG. 3A: 1×10^7 NCI-H358 NSCLC cells were injected subcutaneously into nu/nu mice on day 0. FIG. 3B: 5×10^6 A673 rhabdomyosarcoma cells were injected subcutaneously into nu/nu mice on day 0. Mice were injected i.p. with the indicated IgG on day 1 and 2 times/week thereafter. […] Tumors were measured 2-3 times per week. Mean and standard error is shown for the duration of the study in FIG. 3A, while data for the last day of the study (day 26) is shown in FIG. 3B.
(§3) Nu/nu mice were injected subcutaneously with either 1×10^7 NCI-H358 NSCLC cells or 5×10^6 A673 rhabdomyosarcoma cells on day 0. […] The tumors were then measured twice per wk for a period of approximately six wk for the NCI-H358 bearing mice and four wk for the A673 bearing mice. Tumor volume was calculated according to the formula: volume=L×W×H, where L=length, W=width, H=height.

[1] = test system: VEGF alone or VEGF associated with sFlk-1 (VEGF:Flk-1); assay: Indirect and capture ELISA: reactivity with VEGF alone or VEGF:Flk-1; format: binding, human VEGF; mouse Flk-1
Procedure: The Flk-1/SEAP protein was produced and purified as described by Tessler et al. (1994). Basically, the extracellular domain of Flk-1 (sFlk-1) was produced in Spodoptera frugiperda (Sf9) cells and purified by immunoaffinity techniques utilizing a monoclonal anti-Flk-1 antibody (1A8). sFlk-1 was then biotinylated and bound on avidin-coated plates.
The reactivity was determined as described above for the initial screening.
A capture ELISA was also developed. In the capture ELISA, microtiter plates were coated overnight at 4° C. with 100 ng of the indicated antibody. […] Streptavidin conjugated to peroxidase (Kirkegaard & Perry Laboratories, Inc.), diluted 1:2000, was used as a second layer and developed.

VEGFR2 in PAE/KDR cells = assay: VEGF-induced phosphorylation of VEGFR2 (immunoprecipitation and Western blot); format: cell-based, porcine; details: antibodies at 100 nM, 15 min
Procedure: PAE/KDR, PAE/FLT, and bEND.3 cells were grown to 80-90% confluency in 100 mm tissue dishes in media containing 5% serum. The cells were then serum starved for 24 hours in media containing 0.1% serum. After pretreatment with 100 […] in PBS for 30 min, the cells were incubated with 5 nM (200 ng/ml) VEGF165, 5 nM (100 ng/ml) bFGF (R&D Systems, Minneapolis, Minn.), or A673 tumor conditioned media in the presence or absence of control or test antibodies for additional 15 min.
The cells were then washed with ice-cold PBS containing 10 mM EDTA, 2 mM sodium fluoride, and 2 mM sodium orthovanadate and lysed in lysis buffer (50 mM Tris, 150 mM NaCl, 1% Nonidet P-40, 0.25% sodium deoxycholate, 0.1% CHAPS, 5 mM EDTA, 1.5 mM MgCl2, 2 mM sodium fluoride, 2 mM sodium orthovanadate, 10% glycerol and protease inhibitors (Complete Protease Inhibitor Cocktail tablets, Boehringer Mannheim)). The lysates were clarified by centrifugation and resulting supernatant used for immunoprecipitation.
The reactions using the chicken anti-FLT-1 antibody were subsequently incubated with a bridging goat anti-chicken antibody (Kirkegaard and Perry Laboratories, Inc.) for 1 h at 4° C. […]

NCI-H358 NSCLC = assay: In vivo tumor growth inhibition, newly implanted NCI-H358; design: species or system nu/nu mice
Procedure: as §2, §3

[2] = test system: VEGF-mediated growth of ABAE cells; assay: Endothelial cell growth assay (MTS); format: cell-based, bovine
Procedure: ABAE cells were grown in the presence of the various indicated antibodies and 0.5 nM VEGF. Growth after 4 days was determined calorimetrically by the enzymatic conversion of MTS (Owen's reagent) to a yellow formazan. […] Background was determined by growing cells without VEGF or antibody and was subtracted from the control and sample wells.
Adult bovine aortic endothelial (ABAE) cells were plated into 96-well tissue culture plates at 1500 cells/well and grown in the presence of 0.5 nM human VEGF with the addition of the various sample and control antibodies. Control wells received media with or without VEGF.
After 4 days of incubation, the cells were quantified by an MTS (3-(4,5-dimethylthiazol-2-yl)-5-(3-carboxylmethoxyphenyl)-2-(4-sulfophenyl)-2H-tetrazolium, inner salt) conversion assay, where MTS conversion to a formazan is proportional to cell number and can be followed by absorbance at 490 nm (Cell Titer 96 AQueous One Solution Cell Proliferation Assay, Promega, Madison, Wis.). The assay was performed according to the manufacturer's instructions.
Cell growth was estimated by subtracting the MTS conversion in cultures to which VEGF was not added. Results were expressed as a percentage of the MTS conversion in control cultures to which only VEGF was added (Buttke et al., 1993).

HT1080 fibrosarcoma = assay: Treatment of established HT1080 xenografts (FIG. 5B); format: in vivo, nu/nu mice; details: 100 μg every two days
Procedure: as §1
Male nu/nu mice bearing subcutaneous NCI-H358 tumors or HT1080 fibrosarcoma 200-400 mm^3 in size were injected i.p. with test or control antibodies. The NCI-H358 bearing mice were treated with 100 μg of antibodies per injection three times a week during the first week and twice a week during the second and third week. The mice were then switched to 50 μg per injection every five days. The HT1080 bearing mice were treated with 100 μg of the indicated antibody or saline every other day throughout the duration of the study. In both studies, mice were sacrificed when their tumors reached 2500 mm^3 in size or earlier if tumors began to ulcerate.

[3] = 100 μg i.p. 2 times per wk from day 1, controls approximately 1000 mm^3

VEGF alone or VEGF associated with sFlk-1 (VEGF:Flk-1), sequence (P15692 27-191 isoform P15692-4 limits assumed): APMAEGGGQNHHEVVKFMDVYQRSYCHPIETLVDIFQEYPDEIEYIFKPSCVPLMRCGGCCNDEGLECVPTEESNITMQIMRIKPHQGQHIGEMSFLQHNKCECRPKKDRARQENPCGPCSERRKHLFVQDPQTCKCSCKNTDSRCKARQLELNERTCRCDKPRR

## 2C3: anti-VEGF monoclonal antibody, IgG2a, k, produced by hybridoma ATCC PTA 1595; blocks VEGF binding to VEGFR2 but not VEGFR1 [Clone 2C3]
NCI-H358 tumors; 100 μg, at start 480 mm^3 (2C3), 428 mm^3 (3E7)
  Mean tumor volume after approximately 14 wk of treatment: 84 mm^3
NCI-H358 tumors; after approximately 14 wk
  Decrease in mean tumor volume: approximately 80%
NCI-H358 tumors; day 116
  Mean tumor weight at the end of the study: 0.054 g
A673 rhabdomyosarcoma; [3]
  Final tumor volume, A673: approximately 150 mm^3
A673 rhabdomyosarcoma; 10 or 1 μg twice per wk
  Effect of lower doses on the growth of A673 tumors: did slow the growth
[1]
  Predominant Reactivity: VEGF
VEGFR2 in PAE/KDR cells
  Blocking of VEGF-induced phosphorylation of VEGFR2: block
NCI-H358 NSCLC; 10 μg dose
  Tumor growth retardation in the NCI-H358 tumor model at the lower dose: less marked
NCI-H358 NSCLC; [3]
  Final tumor volume, NCI-H358: approximately 150 mm^3
[2]
  Blocks VEGF-induced proliferation: Yes
HT1080 fibrosarcoma
  Effect on growth of HT1080 tumors: arrested the growth of the tumors
